Assay results: patent publication US11555036B2, “FGFR4 inhibitor, preparation method therefor and pharmaceutical use thereof” (Abbisko Therapeutics Co., Ltd., priority 2016, dated 2023)

Tests used:
FGFR4 = FGFR4 (Homo sapiens, UniProt P22455); test: FGFR4 Caliper Assay (in vitro biochemical kinase analysis of FGFR4); settings: read-out: Enzymatic activity FGFR4 IC50
Procedure, shortened: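 Kinase reaction at 30° C for 40 min in 50 mM HEPES pH 7.5, 16 mM MgCl2, 1 mM DTT, 0.6% DMSO, stopped with EDTA. Phosphorylated and unphosphorylated fluorescent peptides separated by Caliper microfluidic mobility shift. IC50 by non-linear regression of percent inhibition.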

[1] = system: Huh7 hepatocellular carcinoma cells; test: FGFR4 cell proliferation experiment, Cell Titer Glo (CTG); format: cell-based; settings: Homo sapiens, Huh-7, 72 h, HuH-7 cells, 3 days; for IC50: concentration leading to absolute half growth inhibition; for EC50: concentration leading to half maximal growth inhibition
Procedure, shortened: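 Cells treated with 5-fold serial dilutions starting at 10 μM for 3 days at 37° C, 5% CO2. Proliferation/survival quantified as cellular ATP by CellTiter-Glo luminescence.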

Sequence of FGFR4 (P22455 22-802): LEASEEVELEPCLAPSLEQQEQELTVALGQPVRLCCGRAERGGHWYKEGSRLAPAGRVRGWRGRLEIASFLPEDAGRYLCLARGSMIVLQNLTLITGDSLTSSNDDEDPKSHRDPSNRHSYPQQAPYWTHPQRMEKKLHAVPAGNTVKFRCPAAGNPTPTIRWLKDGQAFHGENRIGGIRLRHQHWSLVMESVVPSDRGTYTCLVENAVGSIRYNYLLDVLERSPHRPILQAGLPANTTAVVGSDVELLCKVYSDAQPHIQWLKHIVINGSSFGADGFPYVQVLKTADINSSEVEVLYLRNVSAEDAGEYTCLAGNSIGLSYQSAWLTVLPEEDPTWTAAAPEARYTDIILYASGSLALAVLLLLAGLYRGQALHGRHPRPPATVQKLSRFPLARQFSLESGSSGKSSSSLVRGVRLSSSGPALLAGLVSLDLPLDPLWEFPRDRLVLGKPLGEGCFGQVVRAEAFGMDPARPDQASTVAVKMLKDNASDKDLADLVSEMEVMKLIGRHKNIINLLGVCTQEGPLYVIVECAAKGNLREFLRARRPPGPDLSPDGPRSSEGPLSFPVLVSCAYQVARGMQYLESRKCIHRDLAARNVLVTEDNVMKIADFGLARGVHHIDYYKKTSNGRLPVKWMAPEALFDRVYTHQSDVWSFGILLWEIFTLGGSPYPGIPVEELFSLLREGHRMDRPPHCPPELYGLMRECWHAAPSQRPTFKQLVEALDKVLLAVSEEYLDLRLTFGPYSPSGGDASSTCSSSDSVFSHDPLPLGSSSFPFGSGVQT

Compound	IC50 (FGFR4)	IC50 [1]	EC50 [1]
C=CC(=O)N[C@H]1COC[C@H]1Nc1ncc2cc(-c3c(Cl)c(OC)cc(OC)c3Cl)nc(N3CC(C)OC(C)C3)c2n1 (stereo partly drawn) [Example 690, N-((3R,4S)-4-((6-(2,6-dichloro-3,5-dimethoxyphenyl)-8-(2,6-dimethyl-morpholino)pyrido[3,4-d]pyrimidin-2-yl)amino)tetrahydrofuran-3-yl)acryl-amide]	8 nM	12.1 nM	8.4 nM
C=CC(=O)N[C@H]1COC[C@H]1Nc1ncc2cc(-c3c(Cl)c(OC)cc(OC)c3Cl)nc(N3CCC(OC)CC3)c2n1 [Example 693, N-((3R,4S)-4-((6-(2,6-dichloro-3,5-dimethoxyphenyl)-8-(4-methoxy-piperidin-1-l)pyrido[3,4-d]pyrimidin-2-yl)amino)tetrahydrofuran-3-yl)acryl-amide]	5.6 nM	2.1 nM	1.3 nM
C=CC(=O)N[C@H]1COC[C@H]1Nc1ncc2cc(-c3c(F)c(OC)cc(OC)c3F)nc(N3CCC(OC)CC3)c2n1 [Example 694, N-((3R,4S)-4-((6-(2,6-difluoro-3,5-dimethoxyphenyl)-8-(4-methoxypiper-idin-1-yl)pyrido[3,4-d]pyrimidin-2-yl)amino)tetrahydrofuran-3-yl)acryl-amide]	4.8 nM	12 nM	10 nM
C=CC(=O)N[C@H]1CCOC[C@H]1Nc1ncc2cc(-c3c(Cl)c(OC)cc(OC)c3Cl)nc(N3CC(OC)C3)c2n1 [Example 704, N-((3S,4S)-3-((6-(2,6-dichloro-3,5-di-methoxyphenyl)-8-(3-methoxyazeti-din-1-yl)pyrido[3,4-d]pyrimidin-2-yl)amino)tetrahydro-2H-pyran-4-yl)acrylamide]	8.5 nM	20.2 nM	17.2 nM
C=CC(=O)NCc1cc2c(cn1)cc(-c1c(Cl)c(OC)cc(OC)c1Cl)c(=O)n2C [Example 730, N-((3-(2,6-dichloro-3,5-dimethoxyphenyl)-1-methyl-2-oxo-1,2-dihydro-1,6-naphthyridin-7-yl)methyl)acrylamide]	115 nM	194 nM	164 nM
C=CC(=O)N[C@H]1COC[C@H]1Nc1ncc2cc(-c3c(Cl)c(OC)cc(OC)c3Cl)nc(Cl)c2n1 [Example 753, N-((3R,4S)-4-((8-chloro-6-(2,6-di-chloro-3,5-dimethoxyphenyl)py-rido[3,4-d]pyrimidin-2-yl)amino)tetrahydro-furan-3-yl)acrylamide]	19 nM	212 nM	130 nM
C=CC(=O)N[C@H]1COC[C@H]1Nc1ncc2cc(-c3cc(OC)cc(OC)c3Cl)nc(-c3cnn(C)c3)c2n1 [Example 761, N-((3R,4S)-4-((6-(2-chloro-3,5-dimeth-oxyphenyl)-8-(1-methyl-1H-pyrazol-4-yl)pyrido[3,4-d]pyrimidin-2-yl)ami-no)tetrahydrofuran-3-yl)acrylamide]	14.3 nM	51.8 nM	20.7 nM
C=CC(=O)N[C@H]1COC[C@H]1Nc1ncc2cc(-c3c(Cl)c(OC)cc(OC)c3Cl)nc(N3CC4CC(C3)O4)c2n1 [Example 762, N-((3R,4S)-4-((8-(6-oxa-3-aza-bicyclo[3.1.1]heptan-3-yl)-6-(2,6-di-chloro-3,5-dimethoxyphenyl)pyrido[3,4-d]pyrimidin-2-yl)amino)tetrahydro-furan-3-yl)acrylamide]	5.2 nM	4.2 nM	3.2 nM
C=CC(=O)N[C@H]1COC[C@H]1Nc1ncc2cc(-c3c(Cl)c(OC)cc(OC)c3Cl)nc(N3CC4CC3CO4)c2n1 (stereo partly drawn) [Example 763, N-((3R,4S)-4-((8-(2-oxa-5-azabicyclo[2.2.1]heptan-5-yl)-6-(2,6-dichloro-3,5-dimethoxyphenyl)py-rido[3,4-d]pyrimidin-2-yl)a-mino)tetrahydrofuran-3-yl)acrylamide]	7.9 nM	11.1 nM	7.8 nM
C=CC(=O)N[C@H]1COC[C@H]1Nc1ncc2cc(-c3c(Cl)c(OC)cc(OC)c3Cl)nc(N)c2n1 [Example 765, N-((3R,4S)-4-((8-amino-6-(2,6-di-chloro-3,5-dimethoxyphenyl)pyrido[3,4-d]pyrimidin-2-yl)amino)tetrahydro-furan-3-yl)acrylamide]	158 nM	656 nM	421 nM
[2H]C([2H])([2H])Nc1nc(-c2c(Cl)c(OC([2H])([2H])[2H])cc(OC([2H])([2H])[2H])c2Cl)cc2cnc(N[C@@H]3COC[C@@H]3NC(=O)C=C)nc12 [Example 766, N-((3R,4S)-4-((6-(2,6-dichloro-3,5-bis(methoxy-d3)phenyl)-8-((methyl-d3)amino)pyrido[3,4-d]pyrimidin-2-yl)a-mino)tetrahydrofuran-3-yl)acrylamide]	8.3 nM	27.9 nM	19.8 nM

Continued by falling IC50 (FGFR4), values first:

IC50 (FGFR4)	IC50 [1]	EC50 [1]	Compound
991 nM	2630 nM	1710 nM	C=CC(=O)N[C@H]1COC[C@H]1Nc1cc2c(NC)nc(-c3c(Cl)c(OC)cc(OC)c3Cl)nc2cn1 [Example 752, N-((3R,4S)-4-((2-(2,6-dichloro-3,5-dimethoxyphenyl)-4-(methylamino)pyrido [3,4-d]pyrimidin-6-yl)amino)tetrahydro-furan-3-yl)acrylamide]
78.5 nM	1210 nM	338 nM	C=CC(=O)Nc1cnn(CCOC)c1-c1cc2cnc(-c3c(Cl)c(OC)cc(OC)c3Cl)cc2cn1 [Example 723, N-(5-(7-(2,6-dichloro-3,5-dimethoxyphenyl)-2,6-naphthyridin-3-yl)-1-(2-methoxyethyl)-1H-pyrazol-4-yl)acrylamide]
62.7 nM	1920 nM	1920 nM	C=CC(=O)Nc1cnn(CCOC)c1-c1ncc2cc(-c3c(Cl)c(OC)cc(OC)c3Cl)ncc2n1 [Example 715, N-(5-(6-(2,6-dichloro-3,5-dimethoxyphenyl)pyrido[3,4-d]pyrimidin-2-yl)-1-(2-methoxyethyl)-1H-pyrazol-4-yl)acrylamide]
20.2 nM	31 nM	19 nM	C=CC(=O)N[C@H]1COC[C@H]1Nc1ncc2cc(-c3c(Cl)c(OC)cc(OC)c3Cl)nc(C3=CCOCC3)c2n1 [Example 756, N-((3R,4S)-4-((6-(2,6-dichloro-3,5-dimethoxyphenyl)-8-(3,6-dihydro-2H-pyran-4-yl)pyrido[3,4-d]pyrimidin-2-yl)amino)tetrahydrofuran-3-yl)acryl-amide]
13.6 nM	54 nM	18 nM	[2H]C([2H])([2H])Oc1cc(OC([2H])([2H])[2H])c(Cl)c(-c2cc3cnc(N[C@@H]4COC[C@@H]4NC(=O)C=C)nc3c(OCC)n2)c1Cl [Example 754, N-((3R,4S)-4-((6-(2,6-dichloro-3,5-bis(methoxy-d3)phenyl)-8-ethoxy-pyrido[3,4-d]pyrimidin-2-yl)amino)tetra-hydrofuran-3-yl)acrylamide]
8.2 nM	8.8 nM	5.4 nM	C=CC(=O)N[C@H]1COC[C@H]1Nc1ncc2cc(-c3c(Cl)c(OC)cc(OC)c3Cl)nc(N3CCOCC3)c2n1 [Example 686, N-((3R,4S)-4-((6-(2,6-dichloro-3,5-dimethoxyphenyl)-8-morpholino-pyrido[3,4-d]pyrimidin-2-yl)amino)tetra-hydrofuran-3-yl)acrylamide]
7 nM	60.4 nM	49.4 nM	C=CC(=O)N[C@H]1COC[C@H]1Nc1ncc2cc(-c3c(F)c(OC)cc(OC)c3F)nc(NC)c2n1 [Example 764, N-((3R,4S)-4-((6-(2,6-difluoro-3,5-dimethoxyphenyl)-8-(methylamino)py-rido[3,4-d]pyrimidin-2-yl)amino)tetra-hydrofuran-3-yl)acrylamide]
7 nM	45.1 nM	23.9 nM	C=CC(=O)N[C@H]1COC[C@H]1Nc1ncc2cc(-c3c(F)c(OC)cc(OC)c3F)nc(NCC)c2n1 [Example 767, N-((3R,4S)-4-((6-(2,6-difluoro-3,5-dimethoxyphenyl)-8-(ethylamino)pyri-do[3,4-d]pyrimidin-2-yl)amino)tetra-hydrofuran-3-yl)acrylamide]
6.3 nM	10 nM	6.9 nM	C=CC(=O)N[C@H]1COC[C@H]1Nc1ncc2cc(-c3c(F)c(OC)cc(OC)c3F)nc(N3CCOCC3)c2n1 [Example 687, N-((3R,4S)-4-((6-(2,6-difluoro-3,5-dimethoxyphenyl)-8-morpholino-pyrido[3,4-d]pyrimidin-2-yl)a-mino)tetrahydrofuran-3-yl)acrylamide]
5.9 nM	9.2 nM	5.8 nM	C=CC(=O)N[C@H]1COC[C@H]1Nc1ncc2cc(-c3c(Cl)c(OC)cc(OC)c3Cl)nc(NCC(CO)(CO)CO)c2n1 [Example 758, N-((3R,4S)-4-((6-(2,6-dichloro-3,5-dimethoxypehnyl)-8-((3-hydroxy-2,2-bis(hydroxymethyl)propyl)amino)py-rido[3,4-d]pyrimidin-2-yl)amino)tetra-hydrofuran-3-yl)acrylamide]
5.7 nM	61.1 nM	42.2 nM	C=CC(=O)N[C@H]1COC[C@H]1Nc1ncc2cc(-c3c(Cl)c(OC)cc(OC)c3Cl)nc(N3CC(CO)(CO)C3)c2n1 [Example 759, N-((3R,4S)-4-((8-(3,3-bis(hydroxy-methyl)azetidin-1-yl)-6-(2,6-dichloro-3,5-dimethoxyphenyl)pyrido[3,4-d]py-rimidin-2-yl)amino)tetrahydrofuran-3-yl)acrylamide]
2.9 nM	6.7 nM	5.5 nM	C=CC(=O)N[C@H]1COC[C@H]1Nc1ncc2cc(-c3c(Cl)c(OC)cc(OC)c3Cl)nc(N3CCC(C)(O)C3)c2n1 (stereo partly drawn) [Example 760, N-((3R,4S)-4-((6-(2,6-dichloro-3,5-dimethoxyphenyl)-8-(3-hydroxy-3-methylpyrrolidin-1-yl)pyrido[3,4-d]py-rimidin-2-yl)amino)tetarhydrofuran-3-yl)acrylamide]
